Measured values from the supplement of paper PMC10307832.

How the values were obtained:
Test in all cases: relative viability (nuclei count vs DMSO), 5 days (fraction); higher = more cells survive
AZD6482 + Pemetrexed = compound: Cc1cc([C@@H](C)Nc2ccccc2C(=O)O)c2nc(N3CCOCC3)cc(=O)n2c1 [AZD6482] + Nc1nc2[nH]cc(CCc3ccc(C(=O)N[C@@H](CCC(=O)O)C(=O)O)cc3)c2c(=O)[nH]1 [Pemetrexed] (partner 0.2 µM)
In short: (§1)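 Five library-drug doses in √10 steps were combined with a fixed anchor-drug dose, or a single drug was given alone, by pin tool to lung cancer cell lines in 1536-well plates the day after seeding. Nuclei were stained and counted after 5 days. Relative viability is the nuclei count in treated wells over that in vehicle wells, taken as the median of duplicate plates.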

[1] = compound: COc1cc2nc(N3CCCN(C)CC3)nc(NC3CCN(Cc4ccccc4)CC3)c2cc1OC + CC(=O)Nc1cccc(-n2c(=O)n(C3CC3)c(=O)c3c(Nc4ccc(I)cc4F)n(C)c(=O)c(C)c32)c1 [Trametinib] (partner 0.02 µM)
In short: as §1

AZD6482 + Bortezomib = compound: Cc1cc([C@@H](C)Nc2ccccc2C(=O)O)c2nc(N3CCOCC3)cc(=O)n2c1 [AZD6482] + CC(C)C[C@H](NC(=O)[C@H](Cc1ccccc1)NC(=O)c1cnccn1)B(O)O [Bortezomib] (partner 0.002 µM)
In short: as §1

[2] = compound: COc1cc2nc(N3CCCN(C)CC3)nc(NC3CCN(Cc4ccccc4)CC3)c2cc1OC + C[C@@H](Oc1cc(-c2cnn(C3CCNCC3)c2)cnc1N)c1c(Cl)ccc(F)c1Cl [Crizotinib] (partner 1 µM)
In short: as §1

For UMC-11, the relative viability (AZD6482 + Pemetrexed; first compound 0.08 µM) was 0.752, the relative viability (AZD6482 + Pemetrexed; first compound 0.253 µM) was 0.822 and the relative viability (AZD6482 + Pemetrexed; first compound 0.8 µM) was 0.811. For the same cell line, the relative viability (AZD6482 + Pemetrexed; first compound 2.53 µM) was 0.633, the relative viability (AZD6482 + Pemetrexed; first compound 8 µM) was 0.738 and the relative viability ([1]; first compound 0.2 µM) was 0.741. It also gave a relative viability ([1]; first compound 0.6325 µM) of 0.729, a relative viability ([1]; first compound 2 µM) of 0.836 and a relative viability ([1]; first compound 6.325 µM) of 0.517. The relative viability (AZD6482 + Bortezomib; first compound 0.08 µM) was 0.836, the relative viability (AZD6482 + Bortezomib; first compound 0.253 µM) was 0.628 and the relative viability (AZD6482 + Bortezomib; first compound 0.8 µM) was 0.862. It also gave a relative viability (AZD6482 + Bortezomib; first compound 2.53 µM) of 0.627, a relative viability (AZD6482 + Bortezomib; first compound 8 µM) of 0.75 and a relative viability ([2]; first compound 0.2 µM) of 0.614. The relative viability ([2]; first compound 0.6325 µM) was 0.498, the relative viability ([2]; first compound 2 µM) was 0.673 and the relative viability ([2]; first compound 6.325 µM) was 0.44.
